Results as given in US11013740B2, “Histone deacetylase 6 selective inhibitors for the treatment of cisplatin-induced peripheral neuropathy” (REGENACY PHARMACEUTICALS, LLC, priority 2015, dated 2021).

Experiments:
acetylated α-tubulin = test: Western blot of acetylated α-tubulin in tibial nerves; format: in vivo; details: saline+compound and cisplatin+compound treated mice, 11 doses
Experimental: (§1) Tibial nerves retrieved from the XF24 assay plate were used for western blot analysis of levels of acetylated α-tubulin and mitochondrial proteins cytochrome c oxidase subunit IV (Cox IV), succinate dehydrogenase complex subunit A (SDHA) and voltage-dependent anion channel (VDAC). Tissues were homogenized in RIPA buffer (50 mM Tris-HCl, pH 7.5, 500 mM NaCl, 2.5 mM MgCl2, 1% NP-40, 10% glycerol) containing proteinase inhibitors by sonication and 10 μg of protein was separated by SDS/PAGE and transferred to PVDF membrane for immunoblot analyses. The membranes were blocked with 5% non-fat dry milk in PBST (phosphate-buffered saline containing 0.1% Tween 20) and probed with primary antibodies recognizing acetylated lysine (Rabbit monoclonal; Abcam, Cambridge, United Kingdom), α-tubulin (Rabbit polyclonal; Cell Signaling Technology, Danvers, Mass.), Cox IV (Mouse monoclonal; Life Technologies, Carlsbad, Calif.), SDHA (Rabbit polyclonal; Cell Signaling Technology, Danvers, Mass.) and VDAC (Rabbit polyclonal; Cell Signaling Technology, Danvers, Mass.) followed by HRP-conjugated anti-mouse, anti-rabbit, or anti-β-actin antibodies (Jackson Laboratory, Bar Harbor, Me.). […] The images were acquired using ImageQuant LAS 4000 (GE Healthcare Life Sciences, Little Chalfont, United Kingdom) and densitometrically analyzed using Image J software.

Cox IV, SDHA and VDAC = test: Western blot of mitochondrial marker proteins in tibial nerves; format: in vivo; details: cisplatin-treated mice, 11 injections of compound
Experimental: as §1

rat DRG neurons = test: Mitochondrial movement in cultured DRG neurons; format: cell-based; details: 100 nM co-administered with cisplatin, 3 hours
Experimental: DRG neurons (Lonza) were cultured for 5-7 days before the mitochondrial transport assay. 24 hrs prior to chemotherapy treatment cells were infected with Bacmam 2.0, which labeled mitochondria with GFP. Cells were treated with cisplatin (20-80 μM)+/−compound 001 (100 nM) for 3 hours. Imaging was performed using Zeiss 3i system. Time lapse images were acquired every 2 seconds over the course of 2 min. Image analysis was performed using Fiji and Multiple Kymograph plugin.

motor function = test: Rotarod test; format: in vivo, mice; details: in combination with cisplatin
Experimental: (§2) To quantify signs of cisplatin-induced pain, the von Frey test was used (see below) which measures the decrease in threshold to induce a withdrawal response to a mechanical stimulus (hyperalgesia, one of the characteristics of CIPN). To assess cisplatin-induced numbness, the adhesive removal test (ART) was used. The time it took for the mouse to have a behavioral response to the patch (i.e. shaking or attempted removal) was recorded as a measure of sensory deficit or numbness. To determine if behavioral changes were due to altered general activity or motor function, the locomotor activity (LMA) test and the rotarod test was used. For LMA mice were placed in an open-field testing cage and movement was measured for 5 minutes. For the rotarod, mice were trained for two days and then tested on the rotarod (with increasing speeds) for 5 minutes. Time on the rotarod was recorded.

[1] = test system: cisplatin-induced spontaneous pain; test: Conditioned place preference test for spontaneous pain; format: in vivo, mice; details: cisplatin followed by two weeks of daily compound
Experimental: Spontaneous pain was tested using a conditioning paradigm with retigabine as the conditioned stimulus that was originally described in a rat model (Yang Q, et al. Persistent pain after spinal cord injury is maintained by primary afferent activity. The Journal of Neuroscience. 2014; 34(32):10765-9; Ahmed B, et al. Recent changes in practice of elective percutaneous coronary intervention for stable angina. Circ. Cardiovasc. Qual. Outcomes. 2011; 4(3):300-5.). Retigabine is a […] with a rapid onset of action but only brief duration (45-60 min). […] Mol. Pain. 2010; 6(49); Passmore G M, et al. KCNQ/M currents in sensory neurons: significance for pain therapy. The Journal of Neuroscience, 2003; 23(18):7227-36). Briefly, during pre-conditioning, mice were allowed to freely explore for 15 min the CPP apparatus. The CPP apparatus consisted of 2 chambers (18×20 cm, one dark, one white) connected by a 15 cm hallway (Stoelting, Wood Dale, Ill.). The time spent in the light chamber was recorded. During the conditioning phase, saline was injected intraperitoneally in the morning and the mice were then kept in the dark chamber for 20 min. Three hours later, the analgesic retigabine (#R-100, Alomone laboratory, Jerusalem, Israel) […] the mice were immediately placed in the light chamber for 20 min. Conditioning was repeated for four consecutive days. […]

general activity = test: Locomotor activity (LMA) test; format: in vivo, mice; details: in combination with cisplatin
Experimental: as §2

GFAP = GFAP immunofluorescence of lumbar spinal cord dorsal horn (astrocyte activation); format: in vivo, mice; details: two rounds of cisplatin, then 3 doses of 10 mg/kg
Description: For quantification of astrocyte and microglia activation, lumbar spinal cords were collected on day 22. This collection day was after completion of cisplatin treatment and 3 injections of compound 001. […] Spinal cords were processed and stained with antibodies specific for GFAP and Iba-1. Images were captured under blinded conditions from the lumbar dorsal horn using a Leica SPE confocal microscope (Leica Microsystems, Buffalo Grove, Ill.).
For assessing astrocyte activation, paraformaldehyde fixed frozen 6 μm sections of lumbar spinal cord (L1-L6) were incubated with an antibody against glial fibrillary acidic protein (GFAP) (Rabbit; Abcam, Cambridge, Mass.) followed by Alexa-594-goat anti-rabbit IgG (Life Technologies, Carlsbad, Calif.) as described (Zhang H, et al. Evidence that spinal astrocytes but not microglia contribute to the pathogenesis of Paclitaxel-induced painful neuropathy. J. Pain, 2012; 13(3):293-303). Images were captured using a Leica SPE confocal microscope (Leica Microsystems, Buffalo Grove, Ill.). GFAP staining intensity was quantified using Image J software for percent positive GFAP staining in which intensity thresholds were maintained between samples. All immunofluorescence analysis were done by an experimenter blinded to the treatment groups.

Structure (SMILES): O=C(NO)c1cnc(NC2(c3ccccc3)CCC(F)(F)CC2)nc1 [compound 001]
- α-tubulin acetylation in tibial nerves (acetylated α-tubulin): increased α-tubulin acetylation
- Cox IV level in tibial nerve (Cox IV, SDHA and VDAC): normalized Cox IV levels in the tibial nerve
- percentage of moving mitochondria in axons (mitochondrial transport) (rat DRG neurons): prevented this cisplatin-induced decrease in mitochondrial transport
- motor function (rotarod) (motor function): no effect
- change in time spent in retigabine-paired light chamber (spontaneous pain) [1]: did not develop a preference for the retigabine-paired light chamber
- general activity (locomotor activity) (general activity): no effect on general activity
- GFAP expression in dorsal horn of spinal cord (GFAP): normalized GFAP expression to levels of saline-treated animals
